Measurements taken from patent US20210128529A1, “DRUG CONTAINING PYRAZOLONE DERIVATIVE” (NOBELPHARMA CO., LTD., priority 2017, published 2021).
Converted amounts (≈) assume the structure as drawn.

Assay: Saturation solubility of edaravone in water
Assay type: physicochemical

For `CC1=NN(c2ccccc2)C(=O)C1` [edaravone, 3-Methyl-1-phenyl-2-pyrazolin-5-one], the solubility was 2000 µg/mL (≈ 11.5 mM).
